Data taken from ChEMBL document CHEMBL1201862, “PubChem BioAssay data set” (2004).
Activity calls are given as the source filed them.

Tests used:
[1] = molecular target: 72 kDa type IV collagenase (Homo sapiens, UniProt P08253); test: Dose Response validation of uHTS RPN11 inhibitor hits using a MMP-2 Fluorescence assay.; format: functional
Prothrombin = Prothrombin (Bos taurus, UniProt P00735); test: thrombin protease inhibitors – biochemical, fluorescence polarization, uHTS hits, dose response (AID 602369); format: functional
[2] = molecular target: Dual specificity tyrosine-phosphorylation-regulated kinase 1A (Rattus norvegicus, UniProt Q63470); format: biochemical, Homo sapiens
[3] = molecular target: 26S proteasome non-ATPase regulatory subunit 14 (Homo sapiens, UniProt O00487); test: inhibition of proteasome subunit RPN11 – biochemical, fluorescence polarization, uHTS hits, confirmation (AID 602368); format: functional
Cytochrome P450 3A4 = Cytochrome P450 3A4 (Homo sapiens, UniProt P08684);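 note: CYP3A4 tested as one member of a cytochrome P450 panel screen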
HeLa = test: viability loss in HeLa cells – cell-based, 24 h, cherry-picked samples, cytotoxicity control, dose response (AID 504726); format: functional; settings: Homo sapiens;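 note: potency for cytotoxicity as loss of luminescence signal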
Cytochrome P450 2C9 = Cytochrome P450 2C9 (Homo sapiens, UniProt P11712)
[4] = molecular target: ATP-dependent molecular chaperone HSP82 (Candida albicans (strain WO-1) (Yeast), UniProt C4YTQ8); test: steroid-induced GRE reporter decrease in yeast – S. cerevisiae, luminescence, Hsp90 inhibitor project, dose response (AID 2400); format: functional, cell-based;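 note: beta-galactosidase luminescence from glucocorticoid response element reporter as proxy for Hsp90 function; inhibitor potency where signal loss means Hsp90 inhibition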
[5] = NIH-3T3 fibroblast cytotoxicity, dose response, cytotoxicity control, cell-based, fluorescence, Alamar Blue, secondary assay (AID 2327); format: functional;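 note: NIH-3T3 mouse fibroblasts cultured with fluconazole at 8 µg/mL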
[6] = molecular target: T1, Serine/threonine-protein phosphatase (Candida dubliniensis (strain CD36 / CBS 7987 / NCPF 3949 / NRRLY-17841) (Yeast), UniProt B9W6M3); test: blockers of CaCl2-induced CDRE-lacZ signaling – S. cerevisiae, luminescence, secondary, dose response (AID 2388); format: functional, cell-based;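 note: yeast reporter cells carrying a calcineurin-responsive lacZ construct stimulated with calcium chloride; luminescent beta-galactosidase reporter signal in whole cells rather than isolated phosphatase activity; potency for inhibition where a drop in reporter signal means calcineurin blockade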
T1 sequence (B9W6M3 whole entry): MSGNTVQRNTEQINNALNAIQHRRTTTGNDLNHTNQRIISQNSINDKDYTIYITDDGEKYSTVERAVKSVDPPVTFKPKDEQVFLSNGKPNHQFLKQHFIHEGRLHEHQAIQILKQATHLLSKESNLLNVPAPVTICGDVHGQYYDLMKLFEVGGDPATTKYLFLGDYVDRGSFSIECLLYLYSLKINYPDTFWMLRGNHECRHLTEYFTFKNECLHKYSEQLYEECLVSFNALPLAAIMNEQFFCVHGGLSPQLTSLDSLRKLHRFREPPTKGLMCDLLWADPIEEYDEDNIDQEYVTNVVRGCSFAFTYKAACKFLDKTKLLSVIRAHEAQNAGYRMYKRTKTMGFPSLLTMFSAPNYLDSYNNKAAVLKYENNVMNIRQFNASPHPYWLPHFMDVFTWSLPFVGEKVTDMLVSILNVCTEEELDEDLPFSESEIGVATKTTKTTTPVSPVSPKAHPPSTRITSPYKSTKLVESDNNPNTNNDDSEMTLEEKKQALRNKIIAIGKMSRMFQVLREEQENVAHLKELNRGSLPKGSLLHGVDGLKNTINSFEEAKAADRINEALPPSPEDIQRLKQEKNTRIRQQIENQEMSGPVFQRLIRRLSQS

[7] = fluconazole-exposed Candida albicans growth modulators – fluorescence, retest, confirmation (AID 2467); format: functional, cell-based
[8] = THP-1 cell cytotoxicity, dose response, cytotoxicity control for non-replicating M. tuberculosis project (AID 489025); format: functional
cells = format: functional
[9] = molecular target: T2, Microphthalmia-associated transcription factor (Homo sapiens, UniProt O75030); test: reducers of TRPM1 reporter luminescence, concentration series – cell-based, SK-MEL-5, cherry-picked, set 3, MITF inhibitor project, dose response (AID 493073); format: functional;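 note: SK-MEL-5 melanoma cells with luciferase driven by the MITF target TRPM1 promoter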
T2 sequence (O75030 whole entry): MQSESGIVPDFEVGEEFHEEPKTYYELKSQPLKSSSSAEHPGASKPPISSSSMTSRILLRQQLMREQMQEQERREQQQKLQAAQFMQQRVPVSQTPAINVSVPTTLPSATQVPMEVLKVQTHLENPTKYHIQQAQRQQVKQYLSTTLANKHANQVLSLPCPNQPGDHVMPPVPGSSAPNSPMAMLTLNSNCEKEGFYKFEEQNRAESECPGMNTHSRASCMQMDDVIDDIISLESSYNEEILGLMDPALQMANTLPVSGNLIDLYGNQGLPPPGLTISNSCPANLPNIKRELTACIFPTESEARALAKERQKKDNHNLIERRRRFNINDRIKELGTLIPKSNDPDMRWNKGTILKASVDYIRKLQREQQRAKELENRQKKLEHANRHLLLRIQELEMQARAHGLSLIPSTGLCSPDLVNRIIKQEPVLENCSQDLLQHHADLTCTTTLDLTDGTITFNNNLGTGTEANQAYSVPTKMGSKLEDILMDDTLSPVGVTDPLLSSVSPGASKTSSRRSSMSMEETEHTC

[10] = Trypanosoma cruzi growth suppression in host cells – NIH3T3 host cells, beta-gal luminescence, confirmation (AID 2044); format: functional, cell-based;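 note: intracellular parasites grown in NIH/3T3 mouse fibroblasts as host cells; luminescent beta-galactosidase reporter signal from transgenic T. cruzi replicating inside host cells; inhibitors lower the luminescence signal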
[11] = NIH3T3 cell viability loss – ATP luminescence, mouse fibroblasts, counter-screen, dose response (AID 2010); format: functional, cell-based;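 note: cells exposed to compound for about 90 hours before reading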
[12] = molecular target: T3, Histone-lysine N-methyltransferase NSD2 (Homo sapiens, UniProt O96028); format: biochemical
T3 sequence (O96028 whole entry): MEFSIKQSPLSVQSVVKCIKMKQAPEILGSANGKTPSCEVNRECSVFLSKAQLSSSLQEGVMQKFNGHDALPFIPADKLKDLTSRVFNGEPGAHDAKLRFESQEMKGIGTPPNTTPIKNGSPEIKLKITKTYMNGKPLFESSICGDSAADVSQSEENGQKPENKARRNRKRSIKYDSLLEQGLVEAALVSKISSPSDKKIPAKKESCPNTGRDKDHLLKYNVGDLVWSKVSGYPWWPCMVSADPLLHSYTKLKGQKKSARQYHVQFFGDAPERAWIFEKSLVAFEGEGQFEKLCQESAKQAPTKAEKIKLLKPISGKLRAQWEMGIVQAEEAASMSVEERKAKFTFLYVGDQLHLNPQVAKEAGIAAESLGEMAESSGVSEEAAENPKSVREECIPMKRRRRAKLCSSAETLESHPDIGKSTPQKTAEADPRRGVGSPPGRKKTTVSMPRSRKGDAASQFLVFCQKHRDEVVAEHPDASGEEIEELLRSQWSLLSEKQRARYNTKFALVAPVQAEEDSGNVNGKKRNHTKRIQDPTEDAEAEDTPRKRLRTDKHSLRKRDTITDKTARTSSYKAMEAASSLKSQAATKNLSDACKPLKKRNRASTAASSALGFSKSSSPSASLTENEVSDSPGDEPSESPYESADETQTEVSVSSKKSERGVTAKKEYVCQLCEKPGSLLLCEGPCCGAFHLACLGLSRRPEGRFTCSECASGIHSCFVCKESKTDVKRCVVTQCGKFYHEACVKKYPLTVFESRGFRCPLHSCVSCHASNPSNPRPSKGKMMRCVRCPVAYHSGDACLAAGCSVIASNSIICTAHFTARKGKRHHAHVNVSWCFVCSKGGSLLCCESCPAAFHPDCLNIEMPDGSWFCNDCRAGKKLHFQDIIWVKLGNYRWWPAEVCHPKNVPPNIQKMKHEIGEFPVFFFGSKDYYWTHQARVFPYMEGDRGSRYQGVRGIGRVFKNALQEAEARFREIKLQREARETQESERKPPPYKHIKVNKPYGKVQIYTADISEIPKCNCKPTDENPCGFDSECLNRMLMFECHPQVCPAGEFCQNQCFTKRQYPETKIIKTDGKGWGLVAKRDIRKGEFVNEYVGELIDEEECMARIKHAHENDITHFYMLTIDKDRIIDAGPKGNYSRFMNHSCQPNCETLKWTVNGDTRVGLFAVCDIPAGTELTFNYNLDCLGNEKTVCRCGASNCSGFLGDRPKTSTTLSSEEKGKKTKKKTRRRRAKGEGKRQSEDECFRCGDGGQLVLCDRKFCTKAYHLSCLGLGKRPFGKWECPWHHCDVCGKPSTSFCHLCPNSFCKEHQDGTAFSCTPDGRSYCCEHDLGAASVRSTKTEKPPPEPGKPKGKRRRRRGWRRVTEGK

[13] = molecular target: T4, Alkaline phosphatase, tissue-nonspecific isozyme (Homo sapiens, UniProt P05186); test: TNAP enzyme inhibition by screening hits, dose response, selectivity assay for mouse IAP inhibitor project, biochemical, human TNAP, uHTS hits (AID 488906); format: functional
T4 sequence (P05186 whole entry): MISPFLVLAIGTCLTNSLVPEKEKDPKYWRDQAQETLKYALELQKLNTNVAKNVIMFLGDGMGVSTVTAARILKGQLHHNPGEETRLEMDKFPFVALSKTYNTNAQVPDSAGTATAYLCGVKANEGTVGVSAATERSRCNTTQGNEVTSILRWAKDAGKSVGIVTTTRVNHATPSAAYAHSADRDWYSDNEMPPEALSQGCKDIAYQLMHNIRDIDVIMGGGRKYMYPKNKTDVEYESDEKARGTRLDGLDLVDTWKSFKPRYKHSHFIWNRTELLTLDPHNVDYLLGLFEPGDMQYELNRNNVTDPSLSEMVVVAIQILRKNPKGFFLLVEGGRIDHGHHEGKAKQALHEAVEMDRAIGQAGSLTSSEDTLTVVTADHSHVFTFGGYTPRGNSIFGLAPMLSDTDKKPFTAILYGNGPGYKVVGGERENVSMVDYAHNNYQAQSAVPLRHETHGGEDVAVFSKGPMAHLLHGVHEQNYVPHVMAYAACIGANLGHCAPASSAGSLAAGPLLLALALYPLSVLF

[14] = molecular target: Intestinal-type alkaline phosphatase (Mus musculus, UniProt P24822); test: PubChem AID 488785; format: functional
Albumin = Albumin (Bos taurus, UniProt P02769); test: Counterscreen for inhibitors of T-cell receptor (TCR)-CD3 interaction: Fluorescence-based biochemical high throughput dose response assay to identify inhibitors of T-cell receptor (TCR)-CD3 interaction using a TAMRA-labeled BSA probe.; format: functional
[15] = molecular target: Intestinal-type alkaline phosphatase (Homo sapiens, UniProt P09923); test: inhibition of human intestinal alkaline phosphatase – biochemical, dose response (AID 488876); format: functional
Large T antigen = Large T antigen (Simian virus 40, UniProt P03070); format: functional, Betapolyomavirus macacae;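 note: Confirmatory-stage PubChem screen for compounds that inhibit SV40 T antigen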
[16] = molecular target: T5, RNA-binding protein pos-1 (Caenorhabditis elegans, UniProt G5EF15); test: disruptors of C. elegans POS-1 RNA interaction – biochemical, fluorescence polarization, dose response (AID 1964);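 note: purified POS-1 fused to maltose binding protein made in E. coli; potency of compounds blocking POS-1 binding to fluorescent RNA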
T5 sequence (G5EF15 whole entry): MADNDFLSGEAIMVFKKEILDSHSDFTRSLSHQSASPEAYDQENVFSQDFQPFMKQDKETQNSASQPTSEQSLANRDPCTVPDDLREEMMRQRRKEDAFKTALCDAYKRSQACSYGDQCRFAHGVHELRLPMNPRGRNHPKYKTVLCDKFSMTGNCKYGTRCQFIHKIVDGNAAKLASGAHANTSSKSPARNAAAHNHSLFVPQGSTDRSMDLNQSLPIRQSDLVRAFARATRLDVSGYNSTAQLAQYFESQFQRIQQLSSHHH

[17] = molecular target: T6, Zinc finger protein mex-5 (Caenorhabditis elegans, UniProt Q9XUB2); test: potency of MEX-5 RNA-binding blockers – biochemical, C. elegans, fluorescence polarization, dose response (AID 1960)
T6 sequence (Q9XUB2 whole entry): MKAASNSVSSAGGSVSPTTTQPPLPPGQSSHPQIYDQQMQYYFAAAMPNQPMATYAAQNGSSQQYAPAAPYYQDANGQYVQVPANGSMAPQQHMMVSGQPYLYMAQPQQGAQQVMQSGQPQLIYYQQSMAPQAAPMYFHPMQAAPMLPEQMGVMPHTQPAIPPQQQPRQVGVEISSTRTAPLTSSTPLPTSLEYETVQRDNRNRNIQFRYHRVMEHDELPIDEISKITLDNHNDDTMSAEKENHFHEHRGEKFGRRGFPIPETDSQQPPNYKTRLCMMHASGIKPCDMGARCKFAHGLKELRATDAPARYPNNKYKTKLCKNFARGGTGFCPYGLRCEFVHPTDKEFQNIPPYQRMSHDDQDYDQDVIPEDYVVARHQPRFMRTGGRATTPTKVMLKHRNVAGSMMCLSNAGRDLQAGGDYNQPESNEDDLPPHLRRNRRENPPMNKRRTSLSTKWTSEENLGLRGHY

[18] = molecular target: Glucose-6-phosphate 1-dehydrogenase (Homo sapiens, UniProt P11413); test: inhibition of Homo sapiens G6PD, dose series – biochemical, fluorescence, selectivity assay for P. falciparum G6PD inhibitor project, dose response (AID 504792); format: functional
Chain of Glucose-6-phosphate 1-dehydrogenase (P11413 whole entry): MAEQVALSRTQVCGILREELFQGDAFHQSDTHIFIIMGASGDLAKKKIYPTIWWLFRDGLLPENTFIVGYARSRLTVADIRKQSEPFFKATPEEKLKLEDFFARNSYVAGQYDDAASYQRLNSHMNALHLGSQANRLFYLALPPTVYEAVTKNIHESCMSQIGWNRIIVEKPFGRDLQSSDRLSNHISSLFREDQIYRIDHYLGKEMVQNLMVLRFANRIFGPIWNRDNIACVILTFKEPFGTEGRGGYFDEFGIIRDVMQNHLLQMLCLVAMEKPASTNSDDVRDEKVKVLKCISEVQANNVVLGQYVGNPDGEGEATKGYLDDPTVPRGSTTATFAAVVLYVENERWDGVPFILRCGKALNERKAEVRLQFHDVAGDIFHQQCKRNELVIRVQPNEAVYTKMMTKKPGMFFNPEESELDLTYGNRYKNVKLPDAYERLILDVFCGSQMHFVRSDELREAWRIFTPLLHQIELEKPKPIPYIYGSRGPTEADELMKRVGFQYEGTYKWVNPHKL

Chain of Cytochrome P450 3A4 (P08684 whole entry): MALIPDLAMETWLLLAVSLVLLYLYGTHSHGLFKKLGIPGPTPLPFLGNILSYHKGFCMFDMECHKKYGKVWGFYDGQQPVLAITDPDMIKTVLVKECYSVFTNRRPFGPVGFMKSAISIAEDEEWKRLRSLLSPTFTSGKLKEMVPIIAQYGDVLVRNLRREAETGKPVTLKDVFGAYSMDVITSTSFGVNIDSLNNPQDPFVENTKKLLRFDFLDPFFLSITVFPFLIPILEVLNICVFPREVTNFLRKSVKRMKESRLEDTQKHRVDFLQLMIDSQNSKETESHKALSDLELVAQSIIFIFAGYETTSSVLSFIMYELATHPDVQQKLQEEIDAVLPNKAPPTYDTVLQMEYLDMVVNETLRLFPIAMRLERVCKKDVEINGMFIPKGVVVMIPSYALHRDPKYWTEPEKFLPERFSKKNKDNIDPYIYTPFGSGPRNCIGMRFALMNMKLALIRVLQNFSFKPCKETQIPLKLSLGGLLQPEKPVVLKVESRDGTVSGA
Chain of Large T antigen (P03070 whole entry, the tested form may be a part): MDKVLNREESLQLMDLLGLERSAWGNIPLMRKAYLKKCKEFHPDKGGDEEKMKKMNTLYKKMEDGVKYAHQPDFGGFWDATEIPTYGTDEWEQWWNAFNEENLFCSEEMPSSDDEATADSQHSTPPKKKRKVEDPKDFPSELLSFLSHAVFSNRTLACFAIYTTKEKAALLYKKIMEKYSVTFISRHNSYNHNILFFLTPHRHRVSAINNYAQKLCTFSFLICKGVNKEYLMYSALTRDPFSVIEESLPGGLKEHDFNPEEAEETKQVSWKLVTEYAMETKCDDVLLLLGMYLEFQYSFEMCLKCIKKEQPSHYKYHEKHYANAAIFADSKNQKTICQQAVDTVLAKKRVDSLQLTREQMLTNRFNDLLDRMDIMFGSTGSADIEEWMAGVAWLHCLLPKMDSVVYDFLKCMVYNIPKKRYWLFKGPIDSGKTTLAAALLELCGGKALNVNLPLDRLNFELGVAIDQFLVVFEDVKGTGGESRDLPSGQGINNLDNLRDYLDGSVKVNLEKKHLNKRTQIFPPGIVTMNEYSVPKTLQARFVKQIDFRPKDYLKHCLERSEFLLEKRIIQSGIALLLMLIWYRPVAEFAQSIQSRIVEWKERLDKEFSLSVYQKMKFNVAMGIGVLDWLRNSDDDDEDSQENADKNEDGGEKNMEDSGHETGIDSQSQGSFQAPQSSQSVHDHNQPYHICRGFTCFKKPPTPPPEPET
Chain of ATP-dependent molecular chaperone HSP82 (C4YTQ8 whole entry): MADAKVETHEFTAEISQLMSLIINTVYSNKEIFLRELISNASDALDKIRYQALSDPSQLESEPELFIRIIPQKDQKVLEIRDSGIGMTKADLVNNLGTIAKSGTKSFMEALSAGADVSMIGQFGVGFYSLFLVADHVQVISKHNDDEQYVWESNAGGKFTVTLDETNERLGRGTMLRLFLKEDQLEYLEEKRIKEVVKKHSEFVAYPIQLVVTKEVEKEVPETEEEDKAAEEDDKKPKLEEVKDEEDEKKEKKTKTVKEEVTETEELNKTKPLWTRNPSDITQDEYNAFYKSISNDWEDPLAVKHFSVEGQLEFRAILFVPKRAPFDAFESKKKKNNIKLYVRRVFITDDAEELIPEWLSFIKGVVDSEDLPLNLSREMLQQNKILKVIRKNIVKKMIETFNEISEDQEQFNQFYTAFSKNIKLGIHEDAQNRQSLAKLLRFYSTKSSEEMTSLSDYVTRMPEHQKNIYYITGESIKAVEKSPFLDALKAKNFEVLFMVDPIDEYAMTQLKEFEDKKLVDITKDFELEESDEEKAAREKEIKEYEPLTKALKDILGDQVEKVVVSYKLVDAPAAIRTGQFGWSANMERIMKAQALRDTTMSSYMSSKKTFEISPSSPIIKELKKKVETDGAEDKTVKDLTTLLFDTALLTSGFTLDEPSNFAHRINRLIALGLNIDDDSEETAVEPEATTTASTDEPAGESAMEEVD
Chain of 72 kDa type IV collagenase (P08253 whole entry): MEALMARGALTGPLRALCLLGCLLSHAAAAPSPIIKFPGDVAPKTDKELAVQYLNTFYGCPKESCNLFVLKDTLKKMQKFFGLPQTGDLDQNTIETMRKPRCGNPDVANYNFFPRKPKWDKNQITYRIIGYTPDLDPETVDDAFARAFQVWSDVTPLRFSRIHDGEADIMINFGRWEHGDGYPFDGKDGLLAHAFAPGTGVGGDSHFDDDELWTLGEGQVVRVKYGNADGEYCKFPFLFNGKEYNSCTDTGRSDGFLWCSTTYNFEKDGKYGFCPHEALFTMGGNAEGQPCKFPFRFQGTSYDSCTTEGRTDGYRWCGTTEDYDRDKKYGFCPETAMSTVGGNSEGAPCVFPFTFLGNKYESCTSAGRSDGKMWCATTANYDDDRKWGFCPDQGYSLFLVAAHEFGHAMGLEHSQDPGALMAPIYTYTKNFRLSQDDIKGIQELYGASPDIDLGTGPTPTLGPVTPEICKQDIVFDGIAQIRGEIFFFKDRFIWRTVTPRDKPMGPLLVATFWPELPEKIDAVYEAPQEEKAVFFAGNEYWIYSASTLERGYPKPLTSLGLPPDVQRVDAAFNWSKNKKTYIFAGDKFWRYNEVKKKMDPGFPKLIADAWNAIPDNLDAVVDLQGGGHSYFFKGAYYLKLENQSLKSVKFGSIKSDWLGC
Chain of Intestinal-type alkaline phosphatase (Mus musculus, UniProt P24822) (P24822 whole entry): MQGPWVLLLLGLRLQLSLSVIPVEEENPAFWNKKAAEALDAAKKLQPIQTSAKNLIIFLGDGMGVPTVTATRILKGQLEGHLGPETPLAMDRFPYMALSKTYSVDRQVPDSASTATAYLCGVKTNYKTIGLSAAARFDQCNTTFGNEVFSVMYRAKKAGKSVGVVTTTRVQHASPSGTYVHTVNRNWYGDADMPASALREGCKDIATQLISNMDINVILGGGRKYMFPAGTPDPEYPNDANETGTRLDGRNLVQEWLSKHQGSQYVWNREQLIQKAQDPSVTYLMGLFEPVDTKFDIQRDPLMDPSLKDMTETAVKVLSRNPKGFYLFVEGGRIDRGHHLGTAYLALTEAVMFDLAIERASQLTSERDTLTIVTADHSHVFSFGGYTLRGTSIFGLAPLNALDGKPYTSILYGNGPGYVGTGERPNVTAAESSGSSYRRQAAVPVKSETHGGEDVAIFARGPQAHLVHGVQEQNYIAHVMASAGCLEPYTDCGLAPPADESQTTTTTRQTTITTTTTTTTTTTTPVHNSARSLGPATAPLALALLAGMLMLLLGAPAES
Chain of Intestinal-type alkaline phosphatase (Homo sapiens, UniProt P09923) (P09923 whole entry): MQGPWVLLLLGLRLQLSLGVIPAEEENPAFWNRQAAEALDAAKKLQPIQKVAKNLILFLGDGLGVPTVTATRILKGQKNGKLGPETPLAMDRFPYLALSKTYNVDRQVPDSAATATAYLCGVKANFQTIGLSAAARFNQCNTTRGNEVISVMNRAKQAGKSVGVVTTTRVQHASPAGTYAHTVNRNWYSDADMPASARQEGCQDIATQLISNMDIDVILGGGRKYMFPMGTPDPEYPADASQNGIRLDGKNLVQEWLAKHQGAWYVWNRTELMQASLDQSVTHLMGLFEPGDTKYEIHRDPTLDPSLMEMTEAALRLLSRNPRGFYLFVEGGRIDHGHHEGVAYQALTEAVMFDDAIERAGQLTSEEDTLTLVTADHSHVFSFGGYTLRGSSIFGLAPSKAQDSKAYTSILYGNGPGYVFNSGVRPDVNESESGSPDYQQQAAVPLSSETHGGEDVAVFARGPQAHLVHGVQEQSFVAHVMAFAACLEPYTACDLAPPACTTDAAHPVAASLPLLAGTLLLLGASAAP
Chain of Cytochrome P450 2C9 (P11712 whole entry): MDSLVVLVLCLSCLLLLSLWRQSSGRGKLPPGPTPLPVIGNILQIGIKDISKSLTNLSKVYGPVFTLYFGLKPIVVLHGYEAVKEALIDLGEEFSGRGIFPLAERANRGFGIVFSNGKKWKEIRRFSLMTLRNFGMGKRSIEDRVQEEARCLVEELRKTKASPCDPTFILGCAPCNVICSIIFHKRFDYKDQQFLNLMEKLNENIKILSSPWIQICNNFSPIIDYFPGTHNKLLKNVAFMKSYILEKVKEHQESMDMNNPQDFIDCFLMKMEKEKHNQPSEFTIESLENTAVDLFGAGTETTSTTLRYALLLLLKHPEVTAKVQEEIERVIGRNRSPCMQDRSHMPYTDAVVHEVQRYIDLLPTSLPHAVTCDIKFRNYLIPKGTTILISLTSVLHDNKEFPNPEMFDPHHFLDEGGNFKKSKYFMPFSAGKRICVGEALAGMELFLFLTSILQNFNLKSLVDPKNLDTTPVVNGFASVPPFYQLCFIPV
Chain of 26S proteasome non-ATPase regulatory subunit 14 (O00487 whole entry): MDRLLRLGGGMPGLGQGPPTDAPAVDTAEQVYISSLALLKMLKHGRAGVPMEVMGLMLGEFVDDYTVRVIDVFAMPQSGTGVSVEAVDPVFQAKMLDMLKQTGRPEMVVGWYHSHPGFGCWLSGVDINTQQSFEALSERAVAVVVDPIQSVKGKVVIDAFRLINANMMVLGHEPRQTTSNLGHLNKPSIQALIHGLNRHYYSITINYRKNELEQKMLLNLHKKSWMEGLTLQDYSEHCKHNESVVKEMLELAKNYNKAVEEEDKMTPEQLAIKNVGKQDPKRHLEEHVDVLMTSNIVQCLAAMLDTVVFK

Compound: COc1ccc2c3c([nH]c2c1)C(C)NCC3 (centres undefined)
- IC50 [1]: > 100 µM (inactive)
- IC50 (Prothrombin): 13.7 µM (active)
- AC50 [2]: 2.99 µM (active)
- IC50 [3]: 17.9 µM (active)

Compound: CC(C)(C)C1CCC(OCC(O)CN2CCN(c3ccccc3)CC2)CC1.Cl (centres undefined)
- AC50 (Cytochrome P450 3A4): inconclusive

Compound: O=C1c2ccccc2C(=O)C1c1ccccn1
- AC50 [2]: 9.62 µM (active)
- AC50 (HeLa): 139 µM (active)

Compound: CCOC(=O)c1c(C)nc2sc3c(=O)n(-c4ccc(C)cc4)cnc3c2c1-c1ccc(OC)cc1
- AC50 (Cytochrome P450 2C9): 355 nM (inconclusive)
- AC50 (Cytochrome P450 3A4): inconclusive

Compound: CN(C)c1ccnc(-c2ccccc2C(F)(F)F)n1
- AC50 (Cytochrome P450 3A4): inconclusive

Compound: O=C(NCc1ccc(F)cc1)C(c1ccccc1)N(CC1CCCO1)C(=O)Cn1nnc2ccccc21 (centres undefined)
- EC50 [4]: > 150 µM (inactive)
- EC50 [5]: > 150 µM (inactive)
- EC50 [6]: > 180 µM (inactive)
- EC50 [7]: 1.07 µM (active)

Compound: COc1ccccc1OCC(=O)N/N=C/C=C/c1ccc([N+](=O)[O-])o1
- EC50 [4]: > 160 µM (inactive)
- EC50 [5]: 51.2 µM (active)
- EC50 [6]: > 180 µM (inactive)
- EC50 [7]: 0.654 µM (active)
- CC50 [8]: 23 µM (active)
- IC50 (cells): 2.27 µM (active)
- AC50 [9]: 7.39 µM (active)
- EC50 [10]: 105 nM (active)
- EC50 [11]: 14.2 µM (active)

Compound: O=C(Cc1nnc(NC(=O)c2ccccc2)s1)N/N=C\c1ccc(O)c(O)c1
- AC50 [12]: 5.23 µM (active)
- IC50 [13]: > 100 µM (inactive)
- IC50 [14]: 24.6 µM (active)
- IC50 (Albumin): > 94.1 µM (inactive)
- IC50 [15]: > 100 µM (inactive)
- IC50 (Large T antigen): 20.8 µM (active)

Compound: COc1cc(-c2cc(=O)c3c(O)c(OC)c(OC)c(O)c3o2)ccc1O [ISOTHYMONIN]
- EC50 [16]: 48 µM (active)
- AC50 [2]: 0.892 µM (active)
- EC50 [17]: 7.08 µM (inconclusive)
- IC50 (Large T antigen): 6.77 µM (active)
- IC50 [18]: > 80 µM (inactive)
